Experiments:
[1] = tested on: BaF3; experiment: Antiproliferative activity against mouse BaF3 cells harboring HER2 YVMA mutant measured for 24 hrs by CellTiter-Glo assay; assay type: functional, cell-based; conditions: BaF3, 24 h
[2] = biological target: T1, Receptor tyrosine-protein kinase erbB-2 (Homo sapiens, UniProt P04626); experiment: Inhibition of HER2 (unknown origin)
[3] = biological target: T2, Epidermal growth factor receptor (Homo sapiens, UniProt P00533)
Description: Inhibition of EGFR (unknown origin)

[4] = biological target: T1, Receptor tyrosine-protein kinase erbB-2; experiment: Inhibition of wild-type HER2 phosphorylation in human BT-474 cells; assay type: cell-based
[5] = Antiproliferative activity against human NCI-H1975 cells harboring EGFR L858R mutant assessed as reduction in cell viability measured after 72 hrs by MTT assay; assay type: functional, cell-based; conditions: NCI-H1975, 72 h
[6] = tested on: SK-BR-3; experiment: Antiproliferative activity against human SK-BR-3 cells assessed as reduction in cell growth incubated for 72 hrs by MTT assay; assay type: functional, cell-based; conditions: SK-BR-3, 72 h
[7] = biological target: T1, Receptor tyrosine-protein kinase erbB-2; experiment: Inhibition of human wild type HER2 using PolyEY as substrate pre-incubated for 30 mins followed by substrate addition and measured for 60 mins by spectrophotometric analysis
[8] = biological target: T2, Epidermal growth factor receptor; experiment: Inhibition of human wild type EGFR using PolyEY as substrate pre-incubated for 30 mins followed by substrate addition and measured for 60 mins by spectrophotometric analysis
[9] = tested on: BT-474; experiment: Antiproliferative activity against human BT-474 cells; assay type: functional, cell-based
[10] = biological target: T1, Receptor tyrosine-protein kinase erbB-2; experiment: Inhibition of flag-tagged HER2 (unknown origin) extracted from Escherichia coli
[11] = Half life in human; assay type: ADME
[12] = tested on: NCI-N87; experiment: Antiproliferative activity against human NCI-N87 cells; assay type: functional, cell-based
[13] = Clearance in rat; assay type: ADME; conditions: in vivo
[14] = Metabolic stability in human liver microsomes assessed as half life incubated for 60 mins by LC-MS/MS analysis; assay type: ADME, Microsome
[15] = tested on: NCI-N87; experiment: Antiproliferative activity against human NCI-N87 cells assessed as cell growth measured for 48 hrs by MTT assay; assay type: functional, cell-based; conditions: NCI-N87, 48 h
[16] = tested on: BT-474; experiment: Antiproliferative activity against human BT-474 cells assessed as reduction in cell growth; assay type: functional, cell-based
[17] = Metabolic stability in human liver microsomes assessed as half life; assay type: ADME, Microsome
[18] = biological target: Receptor tyrosine-protein kinase erbB-2 (Homo sapiens, UniProt P04626, D769H); experiment: Inhibition of HER2 D769H mutant (unknown origin)
[19] = biological target: Receptor tyrosine-protein kinase erbB-2 (Homo sapiens, UniProt P04626, D769Y); experiment: Inhibition of HER2 D769Y mutant (unknown origin)
Sequence of Receptor tyrosine-protein kinase erbB-2 (Homo sapiens, UniProt P04626, D769Y) (P04626 23-1255 D769Y limits assumed): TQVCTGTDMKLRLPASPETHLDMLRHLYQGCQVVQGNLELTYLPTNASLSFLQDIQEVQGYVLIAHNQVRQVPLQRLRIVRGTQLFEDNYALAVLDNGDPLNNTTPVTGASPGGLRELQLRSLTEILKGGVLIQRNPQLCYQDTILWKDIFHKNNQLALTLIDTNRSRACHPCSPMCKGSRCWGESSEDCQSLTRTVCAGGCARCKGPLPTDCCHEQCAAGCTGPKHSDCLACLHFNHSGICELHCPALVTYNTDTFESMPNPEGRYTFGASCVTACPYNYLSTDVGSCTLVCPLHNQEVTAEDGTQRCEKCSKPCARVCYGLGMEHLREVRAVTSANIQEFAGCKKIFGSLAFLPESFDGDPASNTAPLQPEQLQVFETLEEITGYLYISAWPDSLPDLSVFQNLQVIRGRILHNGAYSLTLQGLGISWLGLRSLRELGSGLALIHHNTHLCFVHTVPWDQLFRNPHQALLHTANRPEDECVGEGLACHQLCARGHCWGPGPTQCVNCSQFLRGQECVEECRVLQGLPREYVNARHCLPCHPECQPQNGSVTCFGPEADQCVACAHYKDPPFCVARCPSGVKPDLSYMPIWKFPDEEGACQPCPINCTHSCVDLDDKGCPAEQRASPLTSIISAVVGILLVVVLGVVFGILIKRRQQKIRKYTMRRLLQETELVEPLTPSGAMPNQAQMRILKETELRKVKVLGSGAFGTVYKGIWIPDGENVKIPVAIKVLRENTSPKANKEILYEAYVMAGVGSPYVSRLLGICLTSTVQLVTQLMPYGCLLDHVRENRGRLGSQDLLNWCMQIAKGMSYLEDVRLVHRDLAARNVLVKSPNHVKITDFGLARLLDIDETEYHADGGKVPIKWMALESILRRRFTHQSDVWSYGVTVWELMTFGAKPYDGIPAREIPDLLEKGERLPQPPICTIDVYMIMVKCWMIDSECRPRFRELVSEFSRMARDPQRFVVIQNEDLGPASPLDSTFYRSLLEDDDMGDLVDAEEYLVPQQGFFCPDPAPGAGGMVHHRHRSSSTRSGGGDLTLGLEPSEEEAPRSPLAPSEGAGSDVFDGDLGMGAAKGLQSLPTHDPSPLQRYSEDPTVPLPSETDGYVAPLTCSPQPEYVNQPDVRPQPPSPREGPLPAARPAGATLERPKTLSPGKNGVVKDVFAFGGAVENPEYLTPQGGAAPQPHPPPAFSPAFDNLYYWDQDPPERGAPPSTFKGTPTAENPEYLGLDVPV

T1 sequence (P04626 whole entry): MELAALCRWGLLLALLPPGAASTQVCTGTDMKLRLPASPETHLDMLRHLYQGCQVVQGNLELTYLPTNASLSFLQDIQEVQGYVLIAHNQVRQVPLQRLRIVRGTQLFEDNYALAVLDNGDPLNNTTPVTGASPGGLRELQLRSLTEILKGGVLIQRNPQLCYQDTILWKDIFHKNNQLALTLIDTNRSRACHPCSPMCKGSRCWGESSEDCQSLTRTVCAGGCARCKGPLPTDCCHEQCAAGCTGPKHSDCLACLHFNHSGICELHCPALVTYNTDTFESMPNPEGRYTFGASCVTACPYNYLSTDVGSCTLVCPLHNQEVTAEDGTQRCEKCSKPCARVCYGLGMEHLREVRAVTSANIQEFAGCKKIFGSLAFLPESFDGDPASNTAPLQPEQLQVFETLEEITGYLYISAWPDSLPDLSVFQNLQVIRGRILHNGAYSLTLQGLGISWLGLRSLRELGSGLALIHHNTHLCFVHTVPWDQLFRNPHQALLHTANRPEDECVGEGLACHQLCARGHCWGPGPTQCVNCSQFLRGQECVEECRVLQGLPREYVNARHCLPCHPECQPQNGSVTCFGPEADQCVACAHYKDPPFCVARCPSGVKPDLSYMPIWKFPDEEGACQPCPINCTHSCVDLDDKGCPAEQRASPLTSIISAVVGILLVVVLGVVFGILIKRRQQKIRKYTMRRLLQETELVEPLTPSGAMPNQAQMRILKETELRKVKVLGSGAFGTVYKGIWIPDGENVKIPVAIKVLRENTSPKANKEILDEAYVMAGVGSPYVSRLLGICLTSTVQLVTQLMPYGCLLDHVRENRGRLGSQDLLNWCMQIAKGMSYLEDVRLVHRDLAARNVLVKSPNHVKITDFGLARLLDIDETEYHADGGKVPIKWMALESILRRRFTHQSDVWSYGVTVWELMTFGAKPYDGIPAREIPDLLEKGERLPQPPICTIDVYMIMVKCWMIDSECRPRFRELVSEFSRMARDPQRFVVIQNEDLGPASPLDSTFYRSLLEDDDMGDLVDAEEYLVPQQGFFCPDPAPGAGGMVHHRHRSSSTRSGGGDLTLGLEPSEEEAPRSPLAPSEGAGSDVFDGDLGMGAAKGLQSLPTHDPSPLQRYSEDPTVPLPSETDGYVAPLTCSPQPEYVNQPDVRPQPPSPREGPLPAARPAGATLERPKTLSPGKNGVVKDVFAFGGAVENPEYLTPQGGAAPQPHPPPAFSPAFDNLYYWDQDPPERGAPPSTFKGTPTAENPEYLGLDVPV
T2 sequence (P00533 whole entry): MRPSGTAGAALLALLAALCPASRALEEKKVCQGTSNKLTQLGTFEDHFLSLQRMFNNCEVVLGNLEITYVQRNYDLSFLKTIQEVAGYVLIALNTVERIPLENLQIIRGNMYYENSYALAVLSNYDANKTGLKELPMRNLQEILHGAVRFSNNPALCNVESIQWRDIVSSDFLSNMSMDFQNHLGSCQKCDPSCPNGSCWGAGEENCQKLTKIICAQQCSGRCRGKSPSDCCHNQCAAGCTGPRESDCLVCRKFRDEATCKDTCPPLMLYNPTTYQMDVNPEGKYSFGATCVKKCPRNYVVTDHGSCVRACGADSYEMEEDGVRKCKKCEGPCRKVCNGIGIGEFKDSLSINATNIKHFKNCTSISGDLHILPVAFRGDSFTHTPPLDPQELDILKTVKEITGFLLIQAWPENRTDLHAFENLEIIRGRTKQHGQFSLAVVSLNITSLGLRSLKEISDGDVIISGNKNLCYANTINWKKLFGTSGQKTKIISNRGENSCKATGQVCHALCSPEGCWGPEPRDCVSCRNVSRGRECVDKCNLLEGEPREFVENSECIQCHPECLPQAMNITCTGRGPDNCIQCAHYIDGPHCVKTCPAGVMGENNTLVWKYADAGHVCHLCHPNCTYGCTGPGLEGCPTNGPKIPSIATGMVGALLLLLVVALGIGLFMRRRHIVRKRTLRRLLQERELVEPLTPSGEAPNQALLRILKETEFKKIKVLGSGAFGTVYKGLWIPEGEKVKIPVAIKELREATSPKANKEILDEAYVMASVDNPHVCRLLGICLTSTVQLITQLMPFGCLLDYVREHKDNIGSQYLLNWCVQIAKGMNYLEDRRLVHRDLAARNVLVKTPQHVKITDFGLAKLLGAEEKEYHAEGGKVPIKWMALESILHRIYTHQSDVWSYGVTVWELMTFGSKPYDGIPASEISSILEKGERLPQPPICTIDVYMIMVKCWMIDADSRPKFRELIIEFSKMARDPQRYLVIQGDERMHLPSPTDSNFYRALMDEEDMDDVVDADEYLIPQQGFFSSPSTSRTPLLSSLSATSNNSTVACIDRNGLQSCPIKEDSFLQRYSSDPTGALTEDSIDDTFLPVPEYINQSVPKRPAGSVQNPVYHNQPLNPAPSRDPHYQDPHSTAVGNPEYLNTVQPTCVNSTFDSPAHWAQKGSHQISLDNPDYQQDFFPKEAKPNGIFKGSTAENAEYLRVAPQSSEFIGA
Sequence of Receptor tyrosine-protein kinase erbB-2 (Homo sapiens, UniProt P04626, D769H) (P04626 23-1255 D769H limits assumed): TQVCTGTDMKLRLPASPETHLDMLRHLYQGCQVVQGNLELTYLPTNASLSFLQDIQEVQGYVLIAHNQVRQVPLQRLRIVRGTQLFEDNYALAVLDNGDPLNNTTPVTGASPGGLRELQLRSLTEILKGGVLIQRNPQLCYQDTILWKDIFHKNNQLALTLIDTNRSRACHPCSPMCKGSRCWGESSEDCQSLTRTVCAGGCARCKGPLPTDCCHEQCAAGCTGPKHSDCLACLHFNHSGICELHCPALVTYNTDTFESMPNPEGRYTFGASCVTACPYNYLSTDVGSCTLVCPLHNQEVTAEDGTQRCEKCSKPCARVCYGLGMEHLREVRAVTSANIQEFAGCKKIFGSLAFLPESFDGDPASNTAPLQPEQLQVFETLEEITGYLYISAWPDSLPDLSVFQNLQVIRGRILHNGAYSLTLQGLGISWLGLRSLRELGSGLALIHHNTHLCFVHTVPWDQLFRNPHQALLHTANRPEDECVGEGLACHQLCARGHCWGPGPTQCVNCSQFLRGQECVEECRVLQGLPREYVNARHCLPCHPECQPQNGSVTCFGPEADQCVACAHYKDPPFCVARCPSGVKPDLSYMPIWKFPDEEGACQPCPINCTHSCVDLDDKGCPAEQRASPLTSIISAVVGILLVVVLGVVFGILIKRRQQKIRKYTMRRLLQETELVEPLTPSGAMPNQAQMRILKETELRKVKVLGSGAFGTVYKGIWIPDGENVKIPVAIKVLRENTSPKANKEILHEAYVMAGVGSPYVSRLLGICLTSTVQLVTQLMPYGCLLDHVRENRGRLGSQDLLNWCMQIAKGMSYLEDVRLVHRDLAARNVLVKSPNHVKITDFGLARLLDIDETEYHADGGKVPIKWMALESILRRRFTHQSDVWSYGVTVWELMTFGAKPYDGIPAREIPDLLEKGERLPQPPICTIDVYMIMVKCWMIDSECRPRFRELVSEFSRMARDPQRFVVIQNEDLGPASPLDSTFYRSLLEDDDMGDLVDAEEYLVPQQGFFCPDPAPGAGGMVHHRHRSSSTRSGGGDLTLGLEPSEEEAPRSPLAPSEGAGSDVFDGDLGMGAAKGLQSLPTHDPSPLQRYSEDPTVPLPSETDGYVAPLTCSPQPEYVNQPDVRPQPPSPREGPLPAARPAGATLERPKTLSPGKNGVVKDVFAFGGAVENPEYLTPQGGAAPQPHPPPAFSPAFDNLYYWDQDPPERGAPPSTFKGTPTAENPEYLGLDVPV

| IC50 [2] | IC50 [3] | Structure (SMILES) | also measured |
| --- | --- | --- | --- |
| – | – | C=CC(=O)Nc1cccc(-c2c[nH]c3ncnc(Nc4ccc(OCc5ccccn5)c(Cl)c4)c23)c1 | IC50 [1]: 17 nM |
| 38 nM | – | CCOc1cc2ncc(C#N)c(Nc3ccc(OCc4ccccn4)c(Cl)c3)c2cc1NC(=O)/C=C/[C@H]1CCCN1C [PYROTINIB] | – |
| ~2.3 nM | – | C=CC(=O)Nc1cccc(-c2c(-c3ccc(N4CCN(C)CC4)cc3)[nH]c3ncnc(Nc4ccc(OCc5ccccn5)c(Cl)c4)c23)c1 | – |
| 13 nM | – | C=CC(=O)NC1CCN(c2ncc3ncnc(Nc4ccc(Oc5ccc6c(c5)ncn6C)c(C)c4)c3n2)CC1 [ZONGERTINIB] | – |
| 314 nM | 2010 nM | Cc1ccc2cccc(Oc3ccc(Nc4ncnc5ccc(NC(=O)C6CCCC6)cc45)cc3C)c2n1 | – |
| – | – | Cc1cc(Nc2ncnc3cccc(OC4CCN(C)CC4)c23)ccc1Oc1ccn2ncnc2c1 | IC50 [4]: 18 nM |
| – | 1.01 nM | CCOCCOc1cc2ncnc(Nc3ccc(OCc4ccccn4)c(Cl)c3)c2cc1NC(=O)/C=C/CN(C)C | IC50 [5]: 60.6 nM |
| – | – | Cc1cc(Nc2ncnc3cccc(O[C@H]4CCN(C)CC4(F)F)c23)ccc1Oc1ccn2ncnc2c1 | IC50 [4]: 5.8 nM |
| 8 nM | 155 nM | Cc1ccc2cccc(Oc3ccc(Nc4ncnc5ccc(NC6CCCC6)cc45)cc3C)c2n1 | IC50 [6]: 238 nM |
| – | – | C=CC(=O)N1CCN(c2ncc3ncnc(Nc4ccc(Oc5ccccc5)c(C)c4)c3n2)CC1 | IC50 [7]: 12 nM; IC50 [1]: 12 nM; IC50 [8]: 200 nM |
| – | – | C=CC(=O)N1CCN(c2ncc3ncnc(Nc4ccc(Oc5ccn6ncnc6c5)c(C)c4)c3n2)CC1 | IC50 [7]: 5.8 nM; IC50 [1]: 5.8 nM; IC50 [8]: 2200 nM |
| 152 nM | – | C=CC(=O)N1CCN(C(=O)Oc2cc3c(Nc4cccc(Cl)c4F)ncnc3cc2OC)[C@H](C)C1 | – |
| – | – | CN1CCN(CCCOc2ccc3ncnc(Nc4ccc(OCc5cccc(F)c5)c(Cl)c4)c3c2)CC1 | IC50 [9]: 80 nM; IC50 [10]: 12 nM; half-life [11]: 0.957 h |
| 6.07 nM | – | C=CC(=O)N1C[C@@H]2C[C@H]1CN2C(=O)Oc1cc2c(Nc3ccc(Cl)c(Cl)c3F)ncnc2cc1OC | – |
| 239 nM | 166 nM | COc1ccc2c(Nc3ccc(Oc4cccc5ccc(C)nc45)c(C)c3)ncnc2c1 | – |
| 42 nM | 143 nM | COCCOc1ccc2ncnc(Nc3ccc(Oc4cccc5ccc(C)nc45)c(C)c3)c2c1 | – |
| 1.67 nM | 1.36 nM | CCOc1cc2ncnc(Nc3ccc(Oc4ccn5ncnc5c4)c(C)c3)c2cc1NC(=O)/C=C/[C@H]1CCCN1C | IC50 [12]: 1.12 nM; IC50 [9]: 2.13 nM |
| 0.04 nM | – | COc1cc2c(Nc3ccc(Oc4ccn5ncnc5c4)c(C)c3)ncnc2cc1OCCCN1CCN(CCCCCCCNc2ccc3c(c2)C(=O)N(C2CCC(=O)NC2=O)C3=O)CC1 (centres undefined) | – |
| 8 nM | > 500 nM | Cc1cc(Nc2ncnc3ccc(NC4=NC(C)(C)CO4)cc23)ccc1Oc1ccn2ncnc2c1 [TUCATINIB] | – |
| 16.4 nM | 65 nM | C=CC(=O)N1CCC[C@@H](n2nc(C(=O)Nc3ccc(CC(=O)N(C)C)c(C)c3C)c3c(N)ncnc32)C1 | – |
| 12 nM | – | O=C(Nc1ccc2ncnc(Nc3ccc(OCc4cccc(F)c4)c(Cl)c3)c2c1)c1ccc(CNCCO)cc1 | IC50 [9]: 200 nM; clearance [13]: ≤ 9.6 mL/min/kg |
| 14 nM | 11 nM | COc1cc2ncnc(Nc3ccc(Oc4cccc5ccc(C)nc45)c(C)c3)c2cc1OC | – |
| 1.69 nM | – | C=CC(=O)N1CCC(Oc2cc3c(Nc4ccc(Cl)c(Cl)c4F)ncnc3cc2OC)CC1 [POZIOTINIB] | – |
| 12 nM | 12 nM | COCCOc1cc2ncnc(Nc3ccc(Oc4cccc5ccc(C)nc45)c(C)c3)c2cc1OCCOC | – |
| 2.21 nM | 7.04 nM | CCOc1cc2ncc(C#N)c(Nc3ccc(Oc4ccn5ncnc5c4)c(C)c3)c2cc1NC(=O)/C=C/CN(C)C | – |
| – | – | Cc1cc(Nc2ncnc3ccc(NC(=O)/C=C/[C@H]4CCCN4C)cc23)ccc1Oc1ccn2ncnc2c1 | half-life [14]: > 116 h; IC50 [15]: 2.65 nM; IC50 [16]: 2.4 nM |
| 1.4 nM | 1.19 nM | Cc1cc(Nc2ncnc3ccc(NC(=O)/C=C/[C@H]4CCCN4C)cc23)ccc1Oc1cc2ncnn2cn1 | – |
| 3.51 nM | 8.13 nM | CCOc1cc2ncnc(Nc3ccc(Oc4ccn5ncnc5c4)c(C)c3)c2cc1NC(=O)/C(F)=C/[C@H]1CCCN1C [SPH-5030] | IC50 [12]: 1.09 nM; IC50 [9]: 2.01 nM; half-life [17]: 9.24 h; IC50 [18]: < 1 nM; IC50 [19]: < 1 nM |
| – | – | C=CC(=O)N1CCN(c2ncc3ncnc(Nc4ccc(Oc5ccc6c(c5)ncn6C)c(C)c4)c3n2)CC1 | IC50 [7]: 16 nM; IC50 [1]: 16 nM; IC50 [8]: > 5 nM |
| 16.4 nM | 0.12 nM | C=CC(=O)N1CCC[C@@H](n2nc(-c3ccc(OCc4cccc(C)n4)cc3)c3c(N)ncnc32)C1 | – |

— ChEMBL document CHEMBL6083185, “Unraveling the future: Innovative design strategies and emerging challenges in HER2-targeted tyrosine kinase inhibitors for cancer therapy” (Eur J Med Chem, 2024)
